In patent publication US6503926B2, “Chemokine receptor antagonists and methods of use therefor” (Millennium Pharmaceuticals, Inc., priority 1998, dated 2003) one finds IC50 data, which are given here for four compounds.

The target of the assay is T1, THP-1 cell membranes (RANTES / MIP-1α binding; chemokine receptor, believed CCR1) (Homo sapiens, UniProt P32246).
T1 sequence (P32246 1-355): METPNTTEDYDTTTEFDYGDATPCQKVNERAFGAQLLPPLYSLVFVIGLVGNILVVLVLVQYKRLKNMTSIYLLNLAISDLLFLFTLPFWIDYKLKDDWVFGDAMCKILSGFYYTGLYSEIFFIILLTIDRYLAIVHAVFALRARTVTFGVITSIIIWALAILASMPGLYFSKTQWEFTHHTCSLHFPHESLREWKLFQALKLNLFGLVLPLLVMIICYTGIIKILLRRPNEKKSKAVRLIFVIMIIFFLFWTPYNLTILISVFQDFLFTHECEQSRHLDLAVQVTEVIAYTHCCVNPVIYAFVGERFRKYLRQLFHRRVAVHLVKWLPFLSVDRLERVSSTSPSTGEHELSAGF
In words: Receptor binding assay, 125I-RANTES or 125I-MIP-1α binding to THP-1 cell membranes. To be noted: 125I-RANTES or 125I-MIP-1α as ligand, 60 min at room temperature, read-out: IC50 (inhibitor concentration required for 50% inhibition of specific binding). As for the experimental part: Membranes were prepared from THP-1 cells (ATCC #TIB202). Cells were harvested by centrifugation, washed twice with PBS (phosphate-buffered saline), and the cell pellets were frozen at -70 to -85° C. The frozen pellet was thawed in ice-cold lysis buffer consisting of 5 mM HEPES (N-2-hydroxyethylpiperazine-N'-2-ethane-sulfonic acid) pH 7.5, 2 mM EDTA (ethylenediaminetetraacetic acid), 5 μg/ml each aprotinin, leupeptin, and chymostatin (protease inhibitors), and 100 μg/ml PMSF (phenyl methane sulfonyl fluoride-also a protease inhibitor), at a concentration of 1 to 5×10^7 cells/ml. This procedure results in cell lysis. The suspension was mixed well to resuspend all of the frozen cell pellet. Nuclei and cell debris were removed by centrifugation of 400×g for 10 minutes at 4° C. The supernatant was transferred to a fresh tube and the membrane fragments were collected by centrifugation at 25,000×g for 30 minutes at 4° C. The supernatant was aspirated and the pellet was resuspended in freezing buffer consisting of 10 mM HEPES pH 7.5, 300 mM sucrose, 1 μg/ml each aprotinin, leupeptin, and chymostatin, and 10 μg/ml PMSF (approximately 0.1 ml per each 10^8 cells). All clumps were resolved using a minihomogenizer, and the total protein concentration was determined using a protein assay kit (Bio-Rad, Hercules, Calif., cat #500-0002). The membrane solution was then aliquoted and frozen at -70 to -85° C. until needed. Binding Assays-utilized the membranes described above. Membrane protein (2 to 20 μg total membrane protein) was incubated with 0.1 to 0.2 nM ^125I-labeled RANTES or MIP-1α with or without unlabeled competitor (RANTES or MIP-1α) or various concentrations of compounds. The binding reactions were performed in 60 to 100 μl of a binding buffer consisting of 10 mM HEPES pH 7.2, 1 mM CaCl2, 5 mM MgCl2, and 0.5% BSA (bovine serum albumin), for 60 min at room temperature. The binding reactions were terminated by harvesting the membranes by rapid filtration through glass fiber filters (GF/B or GF/C, Packard) which were presoaked in 0.3% polyethyleneimine. The filters were rinsed with approximately 600 μl of binding buffer containing 0.5 M NaCl, dried, and the amount of bound radioactivity was determined by scintillation counting in a Topcount beta-plate counter. […] Specific binding is defined as the total binding minus the non-specific binding; non-specific binding is the amount of cpm still detected in the presence of excess unlabeled Rantes or ^125MIP-1α.

The structures appear in SMILES notation.

For the compound `COc1cccc(C(=CCCN2CCC(O)(c3ccc(Cl)cc3)CC2)c2cccnc2)c1` [Example 1, 4-(4-Chlorophenyl)-1-[4-(3-methoxyphenyl)-4-(3-pyridinyl)-3-butenyl]piperidin-4-ol], the IC50 was < 1000 nM. For `OC1(c2ccc(Cl)cc2)CCN(CCC=C(c2ccccc2)c2cccnc2)CC1` [Example 2, 4-(4-Chlorophenyl)-1-[4-phenyl-4-(3-pyridinyl)-3-butenyl]piperidin-4-ol], the IC50 was < 1000 nM. Regarding `COc1ccc(OC)c(C(=CCCN2CCC(O)(c3ccc(Cl)cc3)CC2)c2cccnc2)c1` [Example 3, 4-(4-Chlorophenyl)-1-[4-(2,5-dimethoxyphenyl)-4-(3-pyridinyl)-3-butenyl]piperidin-4-ol], the IC50 was < 1000 nM. Regarding `OC1(c2ccc(Cl)cc2)CCN(CCC=C(c2cccnc2)c2ccnc(Br)c2)CC1` [Example 4, 1-[4-(2-Bromo-4-pyridinyl)-4-(3-pyridinyl)-3-butenyl]-4-(4-chlorophenyl)piperidin-4-ol], the IC50 was > 1000 nM.
